Tests used:
[1] = analysis of data from four clinical studies; suicidal thoughts (MADRS item 10); format: in vivo, patients
[2] = randomised, double-blind, parallel-group clinical trial, 8 weeks; HAM-D and MADRS items of suicidal thoughts; format: in vivo; conditions: escitalopram daily dose of 10-20 mg compared with 40 mg citalopram; persons with major depression
Description: In brief, a clinical trial was designed as a randomised, double-blind, parallel-group trial comprising two different fixed escitalopram doses (10 mg and 20 mg per day) for eight weeks. A placebo-arm was included, as was an active comparator arm in terms of 40 mg citalopram per day. The persons fulfilled the following criteria: (a) DSM-IV (i) major depression with symptoms present for a minimum of 4 weeks; (b) minimum total score of 22 on the 10-item MADRS (Montgomery SA, Åsberg M., A new depression scale designed to be sensitive to change., Br. J. Psychiatry 1979, 134, 382-389) and a score of 2 or more on the HAM-D item (depressed mood) (Hamilton, M., Br. J. Soc. Clin. Psychol 1967, 6, 278-296). Persons who still fulfilled the MADRS and HAM-D criteria after 1-week, single-blind placebo lead-in were randomised to the double-blind treatment. Throughout the 8-week double-blind treatment period, persons assigned to placebo or escitalopram 10 mg daily received no adjustment of dosage. Persons in the escitalopram 20 mg daily group and in the citalopram group were titrated to their final dose of after 1 week of treatment at half of their assigned dose. […] Persons were evaluated at baseline (the end of the 1-week placebo lead-in) and after 1, 2, 4, 6, and 8 weeks. […]

SMILES: CN(C)CCC[C@@]1(c2ccc(F)cc2)OCc2cc(C#N)ccc21 [escitalopram]
- overall effect on suicidal thoughts or suicidal ideation ([1]; after one week of treatment with 10-20 mg escitalopram compared to placebo): significantly pronounced already after one week
- percentage of patients experiencing an increase in suicidal thoughts ([1]; after one week of treatment, compared to patients treated with citalopram or placebo): significantly lower
- treatment of the group of patients having a score greater than or equal to 2 on item 10 on the MADRS depression scale ([1]; compared to citalopram, results of four clinical studies): more much more effective
- alleviation of suicidal ideation ([1]; general statement of the finding): early alleviation of suicidal ideation
- reducing suicidal thoughts [2]: more effective
